Experimental data as given in paper PMC8765320, “Identification of a Proteasome-Targeting Arylsulfonamide with Potential for the Treatment of Chagas’ Disease” (Antimicrobial Agents and Chemotherapy, 2022).

Key:
[1] = tested on: T. cruzi malic enzyme (cTcME); assay: Malic enzyme assay in clarified epimastigote lysates (NADPH production, 340 nm); type: biochemical, Trypanosoma cruzi
Source text: Malic enzyme (ME) catalyzes the oxidative decarboxylation of malate to pyruvate with the concomitant reduction of NAD(P)^+ to NAD(P)H. In light of our TPP studies, we next sought to determine whether the binding of compound 1 to cTcME inhibits enzymatic activity. The ME-dependent production of NADPH was monitored in clarified lysates of T. cruzi epimastigotes at 340 nm after the addition of malate. In the first instance, this assay was validated using ATR-073, an established inhibitor of cTcME ([27]). […] Similarly, preincubation of lysates with 20 μM and 1 μM concentrations of compound 1 inhibited ME activity by 96 and 68%, respectively (Fig. 4C). […] It should be noted that ATR-073 and compound 1 are structurally similar, both being substituted N-phenyl aryl sulfonamides, this common moiety constituting the pharmacophore of this chemical series.
Logarithmic T. cruzi epimastigotes were harvested (1,690 × g, 10 min, 4°C), washed once in ice-cold phosphate-buffered saline, and resuspended at 2 × 10^9 cells ml^−1 in lysis buffer (10 mM phosphate buffer [pH 7.2], 10 mM EDTA, 5 mM benzamidine, 5 mM phenanthroline, 0.1 mM phenylmethylsulfonyl fluoride) containing 1 mg ml^−1 digitonin, followed by incubation at 28°C for 10 min. The resulting lysate was then centrifuged (13,000 × g, 10 min, 4°C), and the supernatant was harvested and stored on ice. The protein concentration of this clarified lysate was determined by using a standard Bio-Rad protein assay.
The activity of malic enzyme was assayed as previously described ([42]), with minor modifications. T. cruzi clarified lysate (30 μl) was added to a reaction mixture (500 μl final volume) containing 50 mM Tris-HCl buffer (pH 7.6), 1 mM MnCl2, and 0.12 mM NADP^+. Reactions were initiated by the addition of 5 mM L-malate. The reduction of NADP^+ was monitored at 340 nm using a UV-2401 spectrophotometer (Shimadzu). To monitor the effect of test compounds on the activity of malic enzyme, compounds (1 and 20 μM) were preincubated for 10 min with the lysate in the reaction mixture. DMSO (0.2%) was used as control. All enzymatic activities were calculated as Δabs min^−1 mg^−1 of protein.

[2] = tested on: L. donovani axenic amastigote; assay: L. donovani axenic amastigote drug sensitivity assay; type: cell-based; details: Leishmania donovani, weighted mean, n ≥ 3, read-out: Mean compound 1 EC50 ± SD
Protocol: (§1) L. donovani promastigote ([35]), axenic amastigote ([25]), and T. brucei bloodstream form ([36]) drug sensitivity assays were carried out as previously described. HepG2 monolayers were washed twice in PBS, detached with 0.05% trypsin/EDTA, and then diluted with fully supplemented MEM growth medium. Cells were pelleted at 80 × g for 5 min and resuspended in fully supplemented growth medium. Cells were seeded into 96-well plates (5 × 10^4/well) and allowed to adhere prior to exposure to test compounds. Plates were incubated at 37°C in the presence of 5% CO2 for 72 h. After incubation, resazurin (20 μl of a 2.5-mg/ml^−1 stock solution) was added to each well, followed by incubation for a further 2 h prior to fluorescence being read as described above.

[3] = tested on: mitochondrial T. cruzi malic enzyme (mTcME); assay: Thermal proteome profiling, mTcME; type: binding, Trypanosoma cruzi; details: lysate, compound at 10× EC50
Protocol: Aliquots of each lysate were then incubated at designated temperatures (33 to 69°C) and then, for each temperature, insoluble (denatured) proteins were removed. The resulting soluble protein samples were reduced, alkylated, and digested with trypsin prior to derivatization with tandem mass tags. Pooled peptides were fractionated by high-pressure liquid chromatography and analyzed by LC/MS-MS prior to identification and quantitation. The melting points of identified proteins were then established using the TPP software package. Full melt curves were established for 6,771 proteins, representing 39.4% coverage of the T. cruzi proteome.
T. cruzi (X10/7 strain) mid-log-phase epimastigotes (∼1 × 10^10) were harvested by centrifugation (1,912 × g, 15 min, 4°C) and washed with ice-cold PBS (1,912 × g, 5 min, 4°C); finally, the cell pellet was resuspended in 8 ml of ice-cold lysis buffer (1 mM EDTA, 1 mM dithiothreitol [DTT], 100 μM TLCK [Nα-p-tosyl-L-lysine chloromethyl ketone], and 1× Roche EDTA-free COmplete protease inhibitor cocktail in 50 mM potassium phosphate buffer [pH 7.4]). […] The resulting lysate was centrifuged (100,000 × g, 20 min, 4°C), the supernatant was collected, and the protein concentration was determined using a Bio-Rad protein assay. […]

HepG2 cells = assay: HepG2 drug sensitivity assay (resazurin); type: cell-based; details: Homo sapiens; Mammalian HepG2; 72 h; weighted mean, n ≥ 3; read-out: Mean compound 1 EC50 ± SD
Protocol: as §1

For COc1ccc(NS(=O)(=O)c2cc(-c3cc(C)n[nH]3)ccc2C)cc1OC [Compound 1], the “reduction in ME activity” value ([1]; preincubation of lysates with 1 μM) was 68%, the “reduction in ME activity” value ([1]; preincubation of lysates with 20 μM) was 96% and the EC50 [2] was 0.7 ± 0.1 µM. For the same molecule, the “impact on the thermal stability of mTcME” value [3] was “no impact” and the EC50 (HepG2 cells) was 23 ± 3 µM.
